Data as given in patent US9371331B2, “Modulators of methyl modifying enzymes, compositions and uses thereof” (Constellation Pharmaceuticals, Inc., priority 2012, dated 2016).
Read-outs that look alike come from different tables or passages of the source.

Columns and labels:
Y641N EZH2 = Y641N EZH2 (Homo sapiens, UniProt Q15910, Y641N); assay: Y641N EZH2 assay: as EZH2 assay, with reconstituted H3K27Me2 oligonucleosomes as substrate; assay type: biochemical
EZH2 (rPRC2) = EZH2 (rPRC2) (Homo sapiens, UniProt Q15910); assay: EZH2 assay: rPRC2, biotinylated oligonucleosomes, 3H SAM methyl transfer (FlashPlate scintillation); assay type: biochemical; conditions: biotinylated oligonucleosome substrate
Chain of EZH2 (rPRC2) (Q15910 whole entry): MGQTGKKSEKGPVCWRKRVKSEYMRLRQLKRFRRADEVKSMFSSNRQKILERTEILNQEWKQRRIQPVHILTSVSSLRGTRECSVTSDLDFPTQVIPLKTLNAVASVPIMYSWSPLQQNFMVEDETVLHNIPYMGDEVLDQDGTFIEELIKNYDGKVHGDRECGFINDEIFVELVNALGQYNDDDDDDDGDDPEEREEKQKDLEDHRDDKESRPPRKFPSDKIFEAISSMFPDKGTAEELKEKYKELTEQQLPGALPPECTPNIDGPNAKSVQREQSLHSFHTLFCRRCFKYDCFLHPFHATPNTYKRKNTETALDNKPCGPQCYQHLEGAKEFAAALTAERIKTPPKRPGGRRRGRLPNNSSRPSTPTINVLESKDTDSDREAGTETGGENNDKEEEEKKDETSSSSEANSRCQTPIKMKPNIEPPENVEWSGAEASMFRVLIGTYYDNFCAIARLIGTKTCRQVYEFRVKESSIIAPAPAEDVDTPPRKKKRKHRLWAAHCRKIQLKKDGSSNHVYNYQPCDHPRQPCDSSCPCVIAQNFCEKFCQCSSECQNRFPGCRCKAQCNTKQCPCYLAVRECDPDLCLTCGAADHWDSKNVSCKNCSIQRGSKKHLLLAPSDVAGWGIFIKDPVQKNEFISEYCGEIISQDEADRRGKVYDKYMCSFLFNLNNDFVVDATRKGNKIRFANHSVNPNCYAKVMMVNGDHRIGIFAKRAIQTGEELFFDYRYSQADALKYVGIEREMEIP
Chain of EZH2 (rPRC2) (O75530 whole entry partner): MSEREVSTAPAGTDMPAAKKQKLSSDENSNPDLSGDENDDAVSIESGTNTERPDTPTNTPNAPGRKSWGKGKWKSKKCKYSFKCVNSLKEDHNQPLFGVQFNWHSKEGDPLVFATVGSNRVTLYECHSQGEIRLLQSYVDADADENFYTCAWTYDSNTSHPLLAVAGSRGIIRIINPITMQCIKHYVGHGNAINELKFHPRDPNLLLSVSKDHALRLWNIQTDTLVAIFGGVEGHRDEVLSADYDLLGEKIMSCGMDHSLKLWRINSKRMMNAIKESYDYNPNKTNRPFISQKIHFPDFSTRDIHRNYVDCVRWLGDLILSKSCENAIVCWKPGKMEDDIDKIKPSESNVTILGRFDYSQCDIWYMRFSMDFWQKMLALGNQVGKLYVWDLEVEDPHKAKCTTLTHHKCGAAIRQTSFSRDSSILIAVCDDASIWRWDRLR
Chain of EZH2 (rPRC2) (Q15022 whole entry partner): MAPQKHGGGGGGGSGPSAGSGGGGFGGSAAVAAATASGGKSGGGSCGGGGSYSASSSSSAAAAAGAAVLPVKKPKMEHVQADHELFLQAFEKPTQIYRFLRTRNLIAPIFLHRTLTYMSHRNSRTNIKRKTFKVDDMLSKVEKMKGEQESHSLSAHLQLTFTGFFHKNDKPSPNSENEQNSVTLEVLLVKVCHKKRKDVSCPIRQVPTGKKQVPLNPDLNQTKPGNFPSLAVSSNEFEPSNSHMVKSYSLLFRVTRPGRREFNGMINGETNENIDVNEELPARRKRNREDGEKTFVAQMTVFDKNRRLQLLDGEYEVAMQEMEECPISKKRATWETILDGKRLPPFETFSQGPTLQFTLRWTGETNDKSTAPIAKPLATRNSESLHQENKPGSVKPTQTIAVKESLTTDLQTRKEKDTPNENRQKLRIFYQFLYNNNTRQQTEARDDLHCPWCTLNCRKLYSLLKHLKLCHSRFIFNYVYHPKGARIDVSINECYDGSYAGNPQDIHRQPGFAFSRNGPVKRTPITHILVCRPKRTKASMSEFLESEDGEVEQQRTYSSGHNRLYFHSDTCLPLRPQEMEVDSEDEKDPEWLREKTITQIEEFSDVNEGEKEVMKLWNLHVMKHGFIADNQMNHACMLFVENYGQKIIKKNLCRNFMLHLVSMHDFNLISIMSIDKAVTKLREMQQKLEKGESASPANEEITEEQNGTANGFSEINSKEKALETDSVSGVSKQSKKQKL
Description: Assays were carried out by mixing rPRC2 together with biotinylated oligonucleosome substrates in the presence of the radio-labeled enzyme co-factor, S-adenosyl-1-methionine (^3H SAM) (Perkin Elmer) and monitoring the enzymatically mediated transfer of tritiated methyl groups from ^3H SAM to histone lysine residues. The amount of resulting tritiated methyl histone product was measured by first capturing the biotinylated oligonucleosomes in streptavidin (SAV) coated FlashPlates (Perkin Elmer), followed by a wash step to remove un-reacted ^3H SAM, and then counting on a TopCount NXT 384 well plate scintillation counter (Perkin Elmer). The final assay conditions for EZH2 were as follows: 50 mM Tris Buffer pH 8.5, 1 mM DTT, 69 μM Brij-35 detergent, 5.0 mM MgCl2, 0.1 mg/mL BSA, 0.2 μM ^3H SAM, 0.2 μM biotinylated oligonucleosomes, 3.6 μM H3K27 mc3 peptide and 2 nM EZH2.
A 12.5 μL volume of the HMT enzyme, H3K27me3 peptide and oligonucleosome substrate in assay buffer was added to each well of the assay plate using a Multidrop Combi (ThermoFisher). Compounds were pre-incubated with the enzyme for 20 min, followed by initiation of the methyltransferase reaction by addition of 12.5 μL of ^3H SAM in assay buffer (final volume=25 μL). The final concentrations of compounds ranged from a top default concentration of 80 μM down to 0.16 μM in ten 2-fold dilution steps. Reactions were carried out for 60 minutes and quenched with 20 μL per well of 1.96 mM SAH, 50 mM Tris pH 8.5, 200 mM EDTA. Stopped reactions were transferred to SAV coated Flashplates (Perkin Elmer), incubated for 120 min, washed with a plate washer, and then read on the TopCount NXT (1.0 min/well) to measure the amount of methyl histone product formed during the reaction.

[1] = Y641N EZH2 IC50, Y641N mutant EZH2, H3K27Me2 oligonucleosome substrate
[2] = EZH2 IC50, wild-type EZH2 (rPRC2)
[3] = Y641N mutant EZH2, H3K27Me2 oligonucleosome substrate, read-out: Y641N EZH2 IC50
[4] = wild-type EZH2 (rPRC2), read-out: EZH2 IC50

Chain of Y641N EZH2 (Q15910 whole entry Y641N): as the sequence (Q15910 whole entry) above, with Y641N counted along it
Chain of Y641N EZH2 (O75530 whole entry partner): as the sequence (O75530 whole entry partner) above
Chain of Y641N EZH2 (Q15022 whole entry partner): as the sequence (Q15022 whole entry partner) above

| SMILES | IC50 (Y641N EZH2; [1]) | IC50 (EZH2 (rPRC2); [2]) | IC50 (Y641N EZH2; [3]) | IC50 (EZH2 (rPRC2); [4]) | also measured |
| --- | --- | --- | --- | --- | --- |
| CCOc1cc(C)[nH]c(=O)c1CNC(=O)c1c(C)n(C(C)c2ccccc2)c2cnccc12 (racemic) [Compound 255, (±)-N-((4-ethoxy-6-methyl-2-oxo-1,2-dihydropyridin-3-yl)methyl)-2-methyl-1-(1-phenylethyl)-1H-pyrrolo[2,3-c]pyridine-3-carboxamide] | 1 to 10 µM | < 0.1 µM |  |  |  |
| CCC(c1ccccc1)n1c(C)c(C(=O)NCc2c(C)cc(C)[nH]c2=O)c2cccnc21 (racemic) [Compound 220, (±)-N-((4,6-dimethyl-2-oxo-1,2-dihydropyridin-3-yl)methyl)-2-methyl-1-(1-phenylpropyl)-1H-pyrrolo[2,3-b]pyridine-3-carboxamide] | 0.1 to 1 µM | < 0.1 µM |  |  |  |
| COc1ccccc1C(C)n1c(C)c(C(=O)NCc2c(C)cc(C)[nH]c2=O)c2ccccc21 (racemic) [Compound 186, (±)-N-((4,6-dimethyl-2-oxo-1,2-dihydropyridin-3-yl)methyl)-1-(1-(2-methoxyphenyl)ethyl)-2-methyl-1H-indole-3-carboxamide] | 0.1 to 1 µM | 0.1 to 1 µM |  |  |  |
| COc1cc(C)[nH]c(=O)c1CNC(=O)c1c(C)n(C(C)C(OC)c2ccccc2)c2ncccc12 (stereo not shown) [Compound 265, 1-(1-methoxy-1-phenylpropan-2-yl)-N-((4-methoxy-6-methyl-2-oxo-1,2-dihydropyridin-3-yl)methyl)-2-methyl-1H-pyrrolo[2,3-b]pyridine-3-carboxamide] |  |  | 0.1 to 1 µM | < 0.1 µM |  |
| COCC(C)n1c(C)c(C(=O)NCc2c(OC)cc(C)[nH]c2=O)c2ccccc21 (single isomer, unassigned) [Compound 223, N-((4-methoxy-6-methyl-2-oxo-1,2-dihydropyridin-3-yl)methyl)-1-(1-methoxypropan-2-yl)-2-methyl-1H-indole-3-carboxamide] | 0.1 to 1 µM | < 0.1 µM |  |  |  |
| Cc1cc(C)c(CNC(=O)c2c(C)n(C(C)c3cccc(C(N)=O)c3)c3ccccc23)c(=O)[nH]1 (single isomer, unassigned) [Compound 225, (R or S)-1-(1-(3-carbamoylphenyl)ethyl)-N-((4,6-dimethyl-2-oxo-1,2-dihydropyridin-3-yl)methyl)-2-methyl-1H-indole-3-carboxamide] | < 0.1 µM | < 0.1 µM |  |  |  |
| Cc1cc(C)c(CNC(=O)c2cn(S(=O)(=O)c3ccccc3)c3ccccc23)c(=O)[nH]1 [Compound 135, N-((4,6-dimethyl-2-oxo-1,2-dihydropyridin-3-yl)methyl)-1-(phenylsulfonyl)-1H-indole-3-carboxamide] |  |  | > 10 µM | 1 to 10 µM |  |
| Cc1cc(C)c(CNC(=O)c2c(C)n(C(C)c3ccccc3)c3cccnc23)c(O)n1 (racemic) [Compound 126, N-((2-hydroxy-4,6-dimethylpyridin-3-yl)methyl)-2-methyl-1-(1-phenylethyl)-1H-pyrrolo[3,2-b]pyridine-3-carboxamide] | 1 to 10 µM | 0.1 to 1 µM |  |  |  |
| Cc1cc(C)c(CNC(=O)c2c(C)n(C(C)CCO)c3ncccc23)c(=O)[nH]1 (racemic) [Compound 193, (±)-N-((4,6-dimethyl-2-oxo-1,2-dihydropyridin-3-yl)methyl)-1-(4-hydroxybutan-2-yl)-2-methyl-1H-pyrrolo[2,3-b]pyridine-3-carboxamide] | 1 to 10 µM | 0.1 to 1 µM |  |  |  |
| COc1cc(C)[nH]c(=O)c1CNC(=O)c1c(C)n(C(C)CC(N)=O)c2ncccc12 (stereo not shown) [Compound 296, 1-(4-amino-4-oxobutan-2-yl)-N-((4-methoxy-6-methyl-2-oxo-1,2-dihydropyridin-3-yl)methyl)-2-methyl-1H-pyrrolo[2,3-b]pyridine-3-carboxamide] |  |  | 1 to 10 µM | 0.1 to 1 µM |  |
| Cc1cc(C)c(CNC(=O)c2c(C)n(C(C)c3cccc(-c4ccncn4)c3)c3ccccc23)c(=O)[nH]1 (racemic) [Compound 205, (±)-N-((4,6-dimethyl-2-oxo-1,2-dihydropyridin-3-yl)methyl)-2-methyl-1-(1-(3-(pyrimidin-4-yl)phenyl)ethyl)-1H-indole-3-carboxamide] | 0.1 to 1 µM | 0.1 to 1 µM |  |  |  |
| COC[C@H](C)n1c(C)c(C(=O)NCc2c(OC)cc(C)[nH]c2=O)c2cncnc21 [Compound 287, (S)-N-((4-methoxy-6-methyl-2-oxo-1,2-dihydropyridin-3-yl)methyl)-7-(1-methoxypropan-2-yl)-6-methyl-7H-pyrrolo[2,3-d]pyrimidine-5-carboxamide] | 1 to 10 µM | 0.1 to 1 µM |  |  |  |
| Cc1cc(C)c(CNC(=O)c2c(C)n(C(C)Cn3cccn3)c3ncccc23)c(=O)[nH]1 (racemic) [Compound 221, (±)-1-(1-(1H-pyrazol-1-yl)propan-2-yl)-N-((4,6-dimethyl-2-oxo-1,2-dihydropyridin-3-yl)methyl)-2-methyl-1H-pyrrolo[2,3-b]pyridine-3-carboxamide] |  |  | 1 to 10 µM | 0.1 to 1 µM |  |
| COc1cc(C)[nH]c(=O)c1CNC(=O)c1c(C)n(C(C)C(C)(C)OC)c2ccccc12 (racemic) [Compound 277, (±)-1-(3-methoxy-3-methylbutan-2-yl)-N-((4-methoxy-6-methyl-2-oxo-1,2-dihydropyridin-3-yl)methyl)-2-methyl-1H-indole-3-carboxamide] | < 0.1 µM | < 0.1 µM |  |  |  |
| COc1nccc(C(C)n2c(C)c(C(=O)NCc3c(OC)cc(C)[nH]c3=O)c3cccnc32)n1 (racemic) [Compound 232, (±)-N-((4-methoxy-6-methyl-2-oxo-1,2-dihydropyridin-3-yl)methyl)-1-(1-(2-methoxypyrimidin-4-yl)ethyl)-2-methyl-1H-pyrrolo[2,3-b]pyridine-3-carboxamide] | 1 to 10 µM | 0.1 to 1 µM |  |  |  |
| CCC(C)n1c(C)c(C(=O)NCc2c(C)cc(C)[nH]c2=O)c2cccnc21 (racemic) [Compound 185, (±)-1-(sec-butyl)-N-((4,6-dimethyl-2-oxo-1,2-dihydropyridin-3-yl)methyl)-2-methyl-1H-pyrrolo[2,3-b]pyridine-3-carboxamide] | 1 to 10 µM | 0.1 to 1 µM |  |  |  |
| COCC(C)n1c(C)c(C(=O)NCc2c(OC)cc(C)[nH]c2=O)c2ccc(N3CCNCC3)nc21 (racemic) [Compound 295, (±)-N-((4-methoxy-6-methyl-2-oxo-1,2-dihydropyridin-3-yl)methyl)-1-(1-methoxypropan-2-yl)-2-methyl-6-(piperazin-1-yl)-1H-pyrrolo[2,3-b]pyridine-3-carboxamide] |  |  | 1 to 10 µM | 0.1 to 1 µM |  |
| COC(C)C(C)n1c(C)c(C(=O)NCc2c(C)cc(C)[nH]c2=O)c2ccc(S(C)(=O)=O)cc21 (stereo not shown) [Compound 322, N-((4,6-dimethyl-2-oxo-1,2-dihydropyridin-3-yl)methyl)-1-(3-methoxybutan-2-yl)-2-methyl-6-(methylsulfonyl)-1H-indole-3-carboxamide] | 0.1 to 1 µM | 0.1 to 1 µM |  |  |  |
| Cc1cc(C)c(CNC(=O)c2c(C)n(-c3ccccc3)c3ccccc23)c(O)n1 [Compound 133, N-((2-hydroxy-4,6-dimethylpyridin-3-yl)methyl)-2-methyl-1-phenyl-1H-indole-3-carboxamide] |  |  | 0.1 to 1 µM | < 0.1 µM |  |
| Cc1cc(C)c(CNC(=O)c2c(C3CC3)n(C(C)c3ccccc3)c3ccccc23)c(O)n1 (racemic) [Compound 131, (±)-2-cyclopropyl-N-((2-hydroxy-4,6-dimethylpyridin-3-yl)methyl)-1-(1-phenylethyl)-1H-indole-3-carboxamide] |  |  |  |  | Y641N EZH2 IC50 (Y641N EZH2; Y641N mutant EZH2, H3K27Me2 oligonucleosome substrate): *(1.0 μM); EZH2 IC50 (EZH2 (rPRC2); wild-type EZH2 (rPRC2)): *(1.0 μM) |
| Cc1cc(C)c(CNC(=O)c2c(C)n(Cc3cncnc3)c3ccccc23)c(=O)[nH]1 [Compound 149, N-((4,6-dimethyl-2-oxo-1,2-dihydropyridin-3-yl)methyl)-2-methyl-1-(pyrimidin-5-ylmethyl)-1H-indole-3-carboxamide] | 1 to 10 µM | 0.1 to 1 µM |  |  |  |
| Cc1cc(C)c(CNC(=O)c2c(C)n(C(C)Cn3ccccc3=O)c3ncccc23)c(=O)[nH]1 (racemic) [Compound 249, (±)-N-((4,6-dimethyl-2-oxo-1,2-dihydropyridin-3-yl)methyl)-2-methyl-1-(1-(2-oxopyridin-1(2H)-yl)propan-2-yl)-1H-pyrrolo[2,3-b]pyridine-3-carboxamide] |  |  | 1 to 10 µM | 0.1 to 1 µM |  |
| CCC(OC)C(C)n1c(C)c(C(=O)NCc2c(OC)cc(C)[nH]c2=O)c2cccnc21 (stereo not shown) [Compound 293, N-((4-methoxy-6-methyl-2-oxo-1,2-dihydropyridin-3-yl)methyl)-1-(3-methoxypentan-2-yl)-2-methyl-1H-pyrrolo [2,3-b] pyridine-3-carboxamide] | 0.1 to 1 µM | < 0.1 µM |  |  |  |
